Measured values from patent US12686704B2, “Procoagulant peptides and use thereof” (RAMBAM MED-TECH LTD., priority 2021, dated 2026).

Legend:
[1] = target: lipidated TF, factor VIIa, factor X (Homo sapiens, UniProt P13726); assay: Factor X activation assay of purified proteins (chromogenic substrate); type: biochemical; settings: peptides at 5 μg/ml and 10 μg/ml; compared to control; FIG. 1A
Procedure: (§1) FIGS. 1A-1C include vertical bar graphs and thromboelastography (TEG) curves, showing that peptide 16 and peptide 16AC increase coagulation. Peptide 16 and 16AC were studied in an assay of purified proteins that included lipidated TF (4 nM), factor VIIa (40 nM), factor X (1.4 μM) and assay buffer. Factor X activated form (Xa) level was studied using a chromogenic substrate (1 mM). […] Bovine factor Xa diluted in the assay buffer was used to generate a standard curve. Without addition of TF (two right columns), no factor Xa was generated. […] (1B) A citrated pooled normal human blood sample (n=3) was left for 4 hours at room temperature in order to expose TF in bloods cells. Following this period, the peptides 16 and 16AC were added (5 μg/ml) along with calcium. […] Representative TEG curves are shown. (1C) The study presented in FIG. 1B was repeated 3 times with different pooled plasma. […] Peptide 16 (non-modified); peptide 16 comprising a C-terminal amid group (16A); peptide 16 comprising an N-terminal acetyl group (16C); and peptide 16 comprising a C-terminal amid group and an N-terminal acetyl group (16AC). In 1B: for control—SP min=11.2; R min=12.8; K min=3.8, Angle deg=52.0; and MA mm=47.9, for Peptide 16—SP min=5.2; R min=6.4; K min=2.8, Angle deg=63.3; and MA mm=50.4, and for Peptide 16AC—SP min=4.7; R min=5.6; K min=2.5, Angle deg=63.1; and MA mm=53.8.
Peptides 16, 16C, 16A and 16AC were studied in an assay of purified proteins that included lipidated TF (0.004 μM), factor VIIa (0.04 μM), factor X (1.4 μM) and assay buffer. Factor X activated form (Xa) level was studied using a chromogenic substrate (1 mM). […] Bovine factor Xa diluted in the assay buffer was used to generate a standard curve. Without addition of TF (two right columns), no factor Xa was generated.

[2] = system: citrated pooled normal human blood; assay: Thromboelastography (TEG) of citrated pooled normal human blood; settings: for Angle / K / MA (maximal amplitude) / R (time to clot formation) / SP / thrombus strength (maximal amplitude, MA), in words / time to clot formation (R), in words: 5 μg/ml with calcium; for Angle / K / MA (maximal amplitude) / R (time to clot formation) / SP: blood left 4 hours at room temperature, representative TEG curve FIG. 1B; for thrombus strength (maximal amplitude, MA), in words / time to clot formation (R), in words: vs control
Procedure: as §1
A citrated pooled normal human blood sample (n=3) was left for 4 hours at room temperature in order to expose TF in bloods cells. Following this period, the peptides 16 and 16AC were added (5 μg/ml) along with calcium. […] Representative images are shown (FIG. 1B). The study from B section was repeated 3 times with different pooled blood.

HUVEC cells = assay: Immunostaining of heparanase, TF, TFPI and TFPI-2 in HUVECs; type: cell-based, human; settings: 10 μg/ml; overnight incubation at 37° C.; vs control cells
Procedure: FIGS. 6A-6F include micrographs of immunohistochemistry assays showing that heparanase procoagulant peptides increase the level of heparanase in HUVECs. Ten (10) μg/ml of peptide 16 (6B-6C) or 10 μg/ml of peptide 16AC (6E-6F) was added to HUVEC cells and compared to control cells (6A-6D). After 30 min or overnight incubation at 37° C., the cells were fixed using formaldehyde 4%, permeabilized, blocked and reacted with specific heparanase antibody. […] Images were visualized through ×50 magnitude, with 0.82 MDC objective lens, captured with a Nikon E995 digital camera (Nikon, Tokyo, Japan), and processed with Adobe Photoshop software (Adobe Systems, San Jose, CA, USA).
FIGS. 7A-7F include micrographs of immunohistochemistry assays showing that heparanase procoagulant peptides increase the level of TF in HUVECs. Ten (10) μg/ml of peptide 16 (7B-7C) or 10 μg/ml of peptide 16AC (7E-7F) was added to HUVEC cells and compared to control cells (7A-7D). After 30 min or overnight incubation at 37° C., the cells were fixed using formaldehyde 4%, permeabilized, blocked and reacted with specific TF antibody. Images were visualized through ×50 magnitude, with 0.82 MDC objective lens, captured with a Nikon E995 digital camera (Nikon, Tokyo, Japan), and processed with Adobe Photoshop software (Adobe Systems, San Jose, CA, USA).
FIGS. 8A-8F include micrographs of immunohistochemistry assays showing that heparanase procoagulant peptides increase the level of TFPI in HUVECs. Ten (10) μg/ml of peptide 16 (8B-8C) or 10 μg/ml of peptide 16AC (8E-8F) was added to HUVEC cells and compared to control cells (8A-8D). After 30 min or overnight incubation at 37° C., the cells were fixed using formaldehyde 4%, permeabilized, blocked and reacted with specific TFPI-1 antibody. Images were visualized through ×50 magnitude, with 0.82 MDC objective lens, captured with a Nikon E995 digital camera (Nikon, Tokyo, Japan), and processed with Adobe Photoshop software (Adobe Systems, San Jose, CA, USA).
FIGS. 9A-9F include micrographs of immunohistochemistry assays showing that heparanase procoagulant peptides increase the level of TFPI-2 in HUVECs. Ten (10) μg/ml of peptide 16 (9B-9C) or 10 μg/ml of peptide 16AC (9E-9F) was added to HUVEC cells and compared to control cells (9A-9D). After 30 min or overnight incubation at 37° C., the cells were fixed using formaldehyde 4%, permeabilized, blocked and reacted with specific TFPI-2 antibody. Images were visualized through ×50 magnitude, with 0.82 MDC objective lens, captured with a Nikon E995 digital camera (Nikon, Tokyo, Japan), and processed with Adobe Photoshop software (Adobe Systems, San Jose, CA, USA).
Briefly, 10 μg/ml of peptide 16 or 10 μg/ml of peptide 16AC was added to HUVEC cells and compared to control cells (6A-6D). After 30 min or overnight incubation at 37° C., the cells were fixed using formaldehyde 4%, permeabilized, blocked and reacted with specific antibodies targeting heparanase, TF, TFPI-1, and TFPI-2 (FIGS. 6-9, respectively).

lipidated TF, factor VIIa, factor X, sequence (P13726 33-295): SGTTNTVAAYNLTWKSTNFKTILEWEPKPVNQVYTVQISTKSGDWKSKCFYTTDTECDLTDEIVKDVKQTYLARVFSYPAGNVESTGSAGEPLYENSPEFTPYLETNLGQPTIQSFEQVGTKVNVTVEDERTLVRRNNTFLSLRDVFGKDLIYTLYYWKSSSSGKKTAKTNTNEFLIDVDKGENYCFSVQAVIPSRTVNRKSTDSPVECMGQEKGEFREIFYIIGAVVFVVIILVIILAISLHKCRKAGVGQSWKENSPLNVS
lipidated TF, factor VIIa, factor X, sequence (P08709 61-212 partner limits assumed): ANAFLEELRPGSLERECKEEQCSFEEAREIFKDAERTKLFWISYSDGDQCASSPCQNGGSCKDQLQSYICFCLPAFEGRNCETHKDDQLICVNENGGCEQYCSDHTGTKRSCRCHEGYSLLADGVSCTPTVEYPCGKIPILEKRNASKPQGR
lipidated TF, factor VIIa, factor X, sequence (P08709 213-466 partner limits assumed): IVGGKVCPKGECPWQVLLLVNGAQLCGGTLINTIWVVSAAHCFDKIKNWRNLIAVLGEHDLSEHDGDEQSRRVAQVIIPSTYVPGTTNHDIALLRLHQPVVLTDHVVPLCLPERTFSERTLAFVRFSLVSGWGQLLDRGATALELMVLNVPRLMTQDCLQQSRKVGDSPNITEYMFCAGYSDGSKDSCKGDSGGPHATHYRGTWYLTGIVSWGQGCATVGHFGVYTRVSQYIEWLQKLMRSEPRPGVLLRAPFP

Substance: GSKRRKLRVYLHCT [Peptide 16, peptide comprising the procoagulant domain of heparanase, non-modified]
- activation of factor X (factor Xa level) [1]: significantly increased activation of factor X compared to control
- Angle [2]: 63.3 deg
- K [2]: 2.8 min
- MA (maximal amplitude) [2]: 50.4 mm
- R (time to clot formation) [2]: 6.4 min
- SP [2]: 5.2 min
- thrombus strength (maximal amplitude, MA), in words [2]: increased thrombus strength
- time to clot formation (R), in words [2]: significantly reduced the time to clot formation (R)
- TF level (staining) (HUVEC cells): strong staining after overnight incubation
- TFPI level (staining) (HUVEC cells): strong staining after overnight incubation
- TFPI-2 level (staining) (HUVEC cells): strong staining after overnight incubation
- heparanase level (staining) (HUVEC cells): strong staining after overnight incubation

Substance: acetyl-GSKRRKLRVYLHCT-amid (Ac-GSKRRKLRVYLHCT-NH2) [Peptide 16AC, peptide 16 comprising a C-terminal amid group and an N-terminal acetyl group]
- activation of factor X (factor Xa level) [1]: significantly increased activation of factor X compared to control
- Angle [2]: 63.1 deg
- K [2]: 2.5 min
- MA (maximal amplitude) [2]: 53.8 mm
- R (time to clot formation) [2]: 5.6 min
- SP [2]: 4.7 min
- thrombus strength (maximal amplitude, MA), in words [2]: increased thrombus strength
- time to clot formation (R), in words [2]: significantly reduced the time to clot formation (R)
- clot formation compared to peptide 16 ([2]; 5 μg/ml, repeated 3 times with different pooled blood, FIG. 1C): significant better effect to increase clot formation compared to peptide 16
- TF level (staining) (HUVEC cells): strong staining after overnight incubation
- TFPI level (staining) (HUVEC cells): strong staining after overnight incubation
- TFPI-2 level (staining) (HUVEC cells): strong staining after overnight incubation
- heparanase level (staining) (HUVEC cells): strong staining after overnight incubation
